Values of other authors, collected in patent US11173064B2, “High-precision drug delivery by dual-domain ocular device” (LYNTHERA CORPORATION, priority 2016, dated 2021).
Where a name gives a salt, the structure may show the parent alone.

Conditions: octanol/water

Row | log P | Compound
1 | ~3.2 | CCNC(=O)CCC/C=C\C[C@@H]1[C@@H](/C=C/[C@@H](O)CCc2ccccc2)[C@H](O)C[C@@H]1O [bimatoprost]
2 | ~1.4 | CC(C)(C)NC[C@H](O)COc1nsnc1N1CCOCC1 [timolol maleate]
